Consider one molecule from patent publication US11466024B2, “Bicylic compound acting as an inhibitor” (CHIA TAI TIANQING PHARMACEUTICAL GROUP CO., LTD., priority 2017, dated 2022).

In general, AUC(0-inf) refers to the area under the concentration-time curve extrapolated to infinity. In general, AUC(0-t) refers to the area under the concentration-time curve up to a stated or last time point. The term half-life denotes the time in which the quantity being followed falls by half. Usually Cmax stands for the highest concentration seen after dosing. Broadly, the Tmax is the time from dosing to the highest level. The bioavailability is dose-corrected exposure relative to a reference, in per cent. Usually IC50 stands for the concentration that inhibits the measured activity by half. As a reminder, the inhibition is the drop in the measured response relative to a control, in per cent.

A short description of data set [1]: Pharmacokinetic evaluation in mice after single IV and PO administration. The settings on record: Balb/c mice, plasma; for MRT inf: read-out: MRT0-inf; for MRT last: read-out: MRT0-last. Details: AUC(0-t) / AUC(0-inf): concentration or dose not given beside the values. The data set is classed as in vivo. How it is done:
Balb/c mice (female, 15 to 30 g, 7- to 9-week old, Shanghai Lingchang) were used to test in vivo pharmacokinetics of compounds. The experimental method was as follows.
The pharmacokinetic characteristics of the compounds were tested by standard protocols after the compounds were administered to rodents by intravenous injection and oral administration. In the experiment, candidate compounds were formulated into clear solutions and administered to mice by a single intravenous injection and a single oral administration. The vehicle for intravenous injection (IV) was a mixed solvent of 5% of DMSO and 95% of 10% Cremophor EL, and the vehicle for oral administration (PO) was a mixed solvent of 1% tween 80, 9% PEG400 and 90% water. Whole blood samples within 48 hours were collected, and centrifuged at 3000 g at 4° C. for 15 minutes. The supernatant was separated to obtain the plasma sample, to which an acetonitrile solution containing an internal standard was added to precipitate the proteins, and the volume of the acetonitrile solution was 20 times that of the plasma sample. The supernatant was obtained by centrifugation, an equal volume of water was added thereto, and the mixture was centrifuged again to get the supernatant for sample injection. Plasma concentrations were quantitatively analyzed by an LC-MS/MS analytical method, and pharmacokinetic parameters, such as peak concentration, peak time, clearance rate, half-life, area under the concentration-time curve, and bioavailability, were calculated.
Of these, “10% Cremophor EL” referred to a deionized aqueous solution of Cremophor EL with a volume concentration of 10%. For example, taking the formulation of a 100 ml solution as an example, 10 ml Cremophor EL was taken and deionized water was added thereto, the mixture was well stirred, and then deionized water was added until the total volume was 100 ml. “Mixed solvent of 5% of DMSO and 95% of 10% Cremophor EL” referred to a mixed solvent comprised of DMSO and 10% Cremophor EL, in which […], and 10% Cremophor EL accounted for 95% of the volume of the mixed solvent. “Mixed solvent of 1% tween 80, 9% PEG400 and 90% water” meant that the volumes of tween 80, PEG400 and water accounted for 1%, 9% and 90% of the volume of the mixed solvent, respectively.

Data set [2] has as its target hERG potassium channel (Homo sapiens, UniProt Q12809). Description: Inhibition test of hERG potassium channel (QPatch, CHO-hERG cells). How it is done:
CHO-hERG cells (from Shanghai Institute of Materia Medica, Chinese Academy of Sciences) were cultured in a 175 cm^2 culture flask. When the cell density reached 60% to 80%, the culture medium was removed, the cells were washed once with 7 mL of PBS, and then 3 mL of Detachin was added for cell detachment. After complete cell detachment, 7 mL of culture medium were added for neutralization, the mixture was then centrifuged, the supernatant was aspirated, and another 5 mL of culture medium was added for re-suspension, so as to ensure that the cell density was 2×10^6/mL to 5×10^6/mL.
The single-cell giga-seal and the formation of whole-cell mode were both completed automatically by a Q patch instrument. After a whole-cell recording mode was achieved, the cells were clamped at −80 mV, exposed to a front voltage of −50 mV for 50 ms prior to a depolarizing stimulus (5 s, +40 mV), and then repolarized to −50 mV for 5 s, followed by a recovery to −80 mV. This voltage stimulation was applied every 15 s and recorded for 2 minutes, and the extracellular fluid was then administered, followed by a record lasting for 5 minutes. Thereafter, the administration process was started. Starting from the lowest test concentration, the compounds were administered at each test concentration and the process lasted for 2.5 minutes. […] At least 3 cells (n≥3) were tested at each concentration.
20 mM stock solution of the compound was diluted with the extracellular fluid, and 5 μL of the 20 mM stock solution of the compound was taken, added to 2495 μL of the extracellular fluid, and diluted by 500 times to 40 μM. Thereafter, the resulting mixture was serially and successively diluted by 3 times in an extracellular fluid containing 0.2% DMSO, so as to obtain a final concentration to be tested.
The experimental data was analyzed by XLFit software.

Structures are written as SMILES. Like-named read-outs stand apart in the source and are kept apart here.

Chain of hERG potassium channel (Q12809 whole entry): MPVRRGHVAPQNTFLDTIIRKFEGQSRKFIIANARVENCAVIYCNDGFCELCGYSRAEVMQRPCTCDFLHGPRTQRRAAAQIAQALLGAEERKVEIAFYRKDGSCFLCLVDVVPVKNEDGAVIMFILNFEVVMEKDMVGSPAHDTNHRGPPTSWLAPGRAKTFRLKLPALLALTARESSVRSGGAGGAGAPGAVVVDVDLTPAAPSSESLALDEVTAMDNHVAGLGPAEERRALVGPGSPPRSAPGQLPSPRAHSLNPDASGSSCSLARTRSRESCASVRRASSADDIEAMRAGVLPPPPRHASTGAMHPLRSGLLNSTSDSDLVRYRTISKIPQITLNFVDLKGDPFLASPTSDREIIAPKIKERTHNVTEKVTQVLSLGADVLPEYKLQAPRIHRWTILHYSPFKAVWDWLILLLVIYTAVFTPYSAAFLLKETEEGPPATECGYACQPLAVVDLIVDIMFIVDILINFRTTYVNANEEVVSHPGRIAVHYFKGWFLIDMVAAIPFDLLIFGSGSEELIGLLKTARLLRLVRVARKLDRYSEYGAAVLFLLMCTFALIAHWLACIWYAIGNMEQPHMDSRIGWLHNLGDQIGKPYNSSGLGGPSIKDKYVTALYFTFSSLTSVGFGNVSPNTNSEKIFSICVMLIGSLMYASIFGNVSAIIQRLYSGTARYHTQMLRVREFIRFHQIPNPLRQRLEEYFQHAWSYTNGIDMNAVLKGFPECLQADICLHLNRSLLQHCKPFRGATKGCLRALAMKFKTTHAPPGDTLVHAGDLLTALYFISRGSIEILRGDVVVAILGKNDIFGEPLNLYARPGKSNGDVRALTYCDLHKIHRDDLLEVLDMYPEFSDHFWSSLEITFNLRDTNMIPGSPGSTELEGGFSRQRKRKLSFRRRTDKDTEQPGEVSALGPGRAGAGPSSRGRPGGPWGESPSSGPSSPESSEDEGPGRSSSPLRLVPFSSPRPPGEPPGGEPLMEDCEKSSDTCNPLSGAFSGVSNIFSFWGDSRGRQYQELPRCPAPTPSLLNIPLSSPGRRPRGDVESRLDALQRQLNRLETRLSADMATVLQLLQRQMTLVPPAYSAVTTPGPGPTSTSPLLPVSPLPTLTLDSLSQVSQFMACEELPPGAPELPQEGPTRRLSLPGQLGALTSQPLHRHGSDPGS

In data set [1] (IV), `CCS(=O)(=O)c1ccc(CNC(=O)c2cc3c(s2)C(C(C)C)N(C[C@H]2CC[C@H](C(F)(F)F)CC2)C3)nc1` (single isomer, unassigned) [Example 1] came in with an AUCExtra of 6.28%, an AUMCExtra of 27.8% and a Tlast of 24.0 h. Besides, in data set [1] (PO), the AUCExtra was 12.1%, the AUMCExtra was 41.3% and the Tlast was found to be 24.0 h. In data set [1] (female, mouse, IV), this molecule gave an AUC(0-inf) of 3.92 µM·h, an AUC(0-t) of 3.67 µM·h, a C0 of 955 nM and a clearance of 7.62 mL/min/kg. In addition, in data set [1] (female, mouse, IV), the half-life was 6.84 h, the MRT inf is 7.66 h and the MRT last stood at 5.91 h. Further, the Vd in data set [1] (female, mouse, IV, read-out: Vdss) was 3.5 L/kg. Also, in data set [1] (female, mouse, PO), the AUC(0-inf) was determined as 35.1 µM·h, the AUC(0-t) was found to be 30.9 µM·h, the Cmax was 3520 nM and the Tmax amounted to 1 h. Also, in data set [1] (female, mouse, PO), the bioavailability was 89.7%, the half-life is 8.7 h, the MRT inf is 10.8 h and the MRT last was found to be 7.19 h. The molecule also showed an IC50 in data set [2] above 40 µM. The molecule further showed an inhibition at 2.5 min, 40 μM in data set [2] (human) of 26.3%.
